According to ChEMBL document CHEMBL5465560, “Selectivity Literature for EUbOPEN Chemogenomic Library” (2024):

Assays:
[1] = target: Melatonin receptor type 1A (Homo sapiens) (UniProt P48039); assay: Selectivity interaction (Eurofins CEREP Diversity Profile (receptors and ion channels)) EUB0000279b MTNR1A; settings: at 10 µM
[2] = target: T1, Inhibitor of nuclear factor kappa-B kinase subunit epsilon (Homo sapiens) (UniProt Q14164); assay: Selectivity interaction (ActivX KiNativ screen (kinase selectivity in THP-1 cell lysates)) EUB0000639a IKBKE; assay type: subcellular; settings: lysate, at 5 µM
T1 sequence (whole entry): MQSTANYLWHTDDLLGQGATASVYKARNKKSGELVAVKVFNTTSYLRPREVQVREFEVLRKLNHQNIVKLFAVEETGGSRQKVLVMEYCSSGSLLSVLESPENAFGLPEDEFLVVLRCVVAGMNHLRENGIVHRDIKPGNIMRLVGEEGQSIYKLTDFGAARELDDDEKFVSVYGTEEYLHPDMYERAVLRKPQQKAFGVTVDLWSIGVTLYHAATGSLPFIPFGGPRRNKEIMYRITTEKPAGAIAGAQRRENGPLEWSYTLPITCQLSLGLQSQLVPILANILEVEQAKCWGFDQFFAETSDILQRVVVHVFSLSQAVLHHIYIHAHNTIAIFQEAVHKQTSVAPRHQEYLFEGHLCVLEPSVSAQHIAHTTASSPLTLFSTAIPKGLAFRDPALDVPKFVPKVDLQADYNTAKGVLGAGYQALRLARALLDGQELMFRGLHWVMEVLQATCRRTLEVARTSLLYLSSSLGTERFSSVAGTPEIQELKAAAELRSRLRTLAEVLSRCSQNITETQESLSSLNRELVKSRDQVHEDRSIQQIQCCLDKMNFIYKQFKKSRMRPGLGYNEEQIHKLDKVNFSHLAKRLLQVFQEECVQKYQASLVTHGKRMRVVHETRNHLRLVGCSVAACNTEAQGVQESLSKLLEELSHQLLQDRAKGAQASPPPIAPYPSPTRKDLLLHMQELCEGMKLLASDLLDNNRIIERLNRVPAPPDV

[3] = target: Ribosomal protein S6 kinase alpha-6 (Homo sapiens, UniProt Q9UK32); assay: Selectivity interaction (KinomeScan (DiscoverX)) EUB0000045b RPS6KA6; settings: at 10 µM
Sequence of Ribosomal protein S6 kinase alpha-6 (Q9UK32 whole entry): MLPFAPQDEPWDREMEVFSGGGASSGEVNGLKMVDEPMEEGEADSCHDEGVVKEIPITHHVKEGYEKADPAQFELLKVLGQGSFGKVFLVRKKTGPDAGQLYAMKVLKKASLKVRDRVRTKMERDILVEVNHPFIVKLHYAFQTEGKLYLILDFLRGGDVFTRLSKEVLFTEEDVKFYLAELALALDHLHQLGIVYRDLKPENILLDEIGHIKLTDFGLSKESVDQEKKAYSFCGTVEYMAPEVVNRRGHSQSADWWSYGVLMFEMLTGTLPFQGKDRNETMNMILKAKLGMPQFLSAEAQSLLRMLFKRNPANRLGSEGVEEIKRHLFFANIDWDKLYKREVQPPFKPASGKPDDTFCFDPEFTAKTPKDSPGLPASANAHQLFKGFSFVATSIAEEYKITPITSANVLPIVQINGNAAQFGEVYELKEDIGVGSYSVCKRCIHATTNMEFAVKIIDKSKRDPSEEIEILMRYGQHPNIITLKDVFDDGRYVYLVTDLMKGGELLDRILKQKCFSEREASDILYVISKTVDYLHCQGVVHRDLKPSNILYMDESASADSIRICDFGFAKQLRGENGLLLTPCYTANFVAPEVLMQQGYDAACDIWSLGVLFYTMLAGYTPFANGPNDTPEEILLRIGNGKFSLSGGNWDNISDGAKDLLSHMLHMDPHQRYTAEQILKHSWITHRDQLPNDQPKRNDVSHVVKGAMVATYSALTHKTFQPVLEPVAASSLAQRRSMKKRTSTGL

[4] = target: T2, Serine/threonine-protein kinase DCLK1 (Homo sapiens) (UniProt O15075); assay: Selectivity interaction (KinomeScan (DiscoverX)) EUB0000607a DCLK1; settings: at 10 µM
T2 sequence (whole entry): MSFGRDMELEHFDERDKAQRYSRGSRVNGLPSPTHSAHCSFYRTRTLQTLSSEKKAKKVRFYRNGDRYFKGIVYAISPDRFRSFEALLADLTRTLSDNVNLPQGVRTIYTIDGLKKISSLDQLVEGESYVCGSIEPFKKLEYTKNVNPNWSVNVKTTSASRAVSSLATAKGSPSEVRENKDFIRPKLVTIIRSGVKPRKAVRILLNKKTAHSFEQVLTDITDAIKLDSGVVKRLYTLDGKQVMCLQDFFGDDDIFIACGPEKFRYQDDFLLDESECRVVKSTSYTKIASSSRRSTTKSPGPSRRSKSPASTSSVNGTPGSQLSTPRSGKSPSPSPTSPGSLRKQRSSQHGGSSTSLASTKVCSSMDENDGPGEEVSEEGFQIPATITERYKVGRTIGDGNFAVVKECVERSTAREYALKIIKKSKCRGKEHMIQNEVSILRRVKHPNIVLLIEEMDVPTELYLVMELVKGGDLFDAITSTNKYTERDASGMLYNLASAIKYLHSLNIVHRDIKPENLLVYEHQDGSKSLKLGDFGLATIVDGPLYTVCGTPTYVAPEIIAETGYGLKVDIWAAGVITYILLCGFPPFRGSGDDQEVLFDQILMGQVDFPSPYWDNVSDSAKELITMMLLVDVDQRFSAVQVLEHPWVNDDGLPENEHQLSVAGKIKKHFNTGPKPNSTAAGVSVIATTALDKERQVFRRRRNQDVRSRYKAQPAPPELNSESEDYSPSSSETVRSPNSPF

[5] = target: Rho-associated protein kinase 1 (Homo sapiens) (UniProt Q13464); assay: Selectivity interaction (SelectScreen profiling (Invitrogen)) EUB0000607a ROCK1; settings: at 2 µM
Sequence of Rho-associated protein kinase 1 (Homo sapiens) (Q13464 2-1354 limits assumed): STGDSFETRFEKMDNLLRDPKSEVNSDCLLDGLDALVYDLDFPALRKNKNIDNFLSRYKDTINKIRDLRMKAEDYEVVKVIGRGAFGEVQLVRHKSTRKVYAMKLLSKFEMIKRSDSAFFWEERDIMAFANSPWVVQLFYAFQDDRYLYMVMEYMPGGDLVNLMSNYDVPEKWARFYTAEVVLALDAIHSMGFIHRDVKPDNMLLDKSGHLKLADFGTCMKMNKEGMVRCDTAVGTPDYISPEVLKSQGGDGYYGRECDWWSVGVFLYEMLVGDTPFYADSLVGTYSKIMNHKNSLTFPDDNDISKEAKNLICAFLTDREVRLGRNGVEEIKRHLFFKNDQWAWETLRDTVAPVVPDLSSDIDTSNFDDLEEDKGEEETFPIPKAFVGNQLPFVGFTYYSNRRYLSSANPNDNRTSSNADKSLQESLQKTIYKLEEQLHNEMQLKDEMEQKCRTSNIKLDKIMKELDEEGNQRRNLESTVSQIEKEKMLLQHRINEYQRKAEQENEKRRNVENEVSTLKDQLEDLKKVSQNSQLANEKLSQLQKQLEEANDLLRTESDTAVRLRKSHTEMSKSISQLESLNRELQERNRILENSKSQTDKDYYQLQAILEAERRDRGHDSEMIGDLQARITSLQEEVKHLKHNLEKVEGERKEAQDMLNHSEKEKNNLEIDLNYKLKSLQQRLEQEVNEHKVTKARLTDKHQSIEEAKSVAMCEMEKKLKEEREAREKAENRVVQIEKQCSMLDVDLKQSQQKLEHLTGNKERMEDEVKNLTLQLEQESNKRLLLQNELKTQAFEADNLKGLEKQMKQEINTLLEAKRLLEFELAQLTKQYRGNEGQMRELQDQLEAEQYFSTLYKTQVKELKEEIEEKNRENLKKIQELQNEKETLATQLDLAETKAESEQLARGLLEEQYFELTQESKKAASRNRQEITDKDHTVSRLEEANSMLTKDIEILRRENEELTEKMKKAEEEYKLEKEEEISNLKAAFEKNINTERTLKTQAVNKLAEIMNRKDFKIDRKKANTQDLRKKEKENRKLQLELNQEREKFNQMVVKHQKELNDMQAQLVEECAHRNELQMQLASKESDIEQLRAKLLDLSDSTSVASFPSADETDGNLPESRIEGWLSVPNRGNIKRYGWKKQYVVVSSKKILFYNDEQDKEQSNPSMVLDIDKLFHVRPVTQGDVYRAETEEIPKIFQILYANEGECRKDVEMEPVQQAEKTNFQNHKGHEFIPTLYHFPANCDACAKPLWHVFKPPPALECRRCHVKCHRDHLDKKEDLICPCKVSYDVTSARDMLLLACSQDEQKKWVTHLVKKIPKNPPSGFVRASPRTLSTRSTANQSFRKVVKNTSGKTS

[6] = target: T3, Tyrosine-protein kinase receptor TYRO3 (Homo sapiens) (UniProt Q06418); assay: Selectivity interaction (KinomeScan (DiscoverX)) EUB0000607a TYRO3; settings: at 10 µM
T3 sequence (whole entry): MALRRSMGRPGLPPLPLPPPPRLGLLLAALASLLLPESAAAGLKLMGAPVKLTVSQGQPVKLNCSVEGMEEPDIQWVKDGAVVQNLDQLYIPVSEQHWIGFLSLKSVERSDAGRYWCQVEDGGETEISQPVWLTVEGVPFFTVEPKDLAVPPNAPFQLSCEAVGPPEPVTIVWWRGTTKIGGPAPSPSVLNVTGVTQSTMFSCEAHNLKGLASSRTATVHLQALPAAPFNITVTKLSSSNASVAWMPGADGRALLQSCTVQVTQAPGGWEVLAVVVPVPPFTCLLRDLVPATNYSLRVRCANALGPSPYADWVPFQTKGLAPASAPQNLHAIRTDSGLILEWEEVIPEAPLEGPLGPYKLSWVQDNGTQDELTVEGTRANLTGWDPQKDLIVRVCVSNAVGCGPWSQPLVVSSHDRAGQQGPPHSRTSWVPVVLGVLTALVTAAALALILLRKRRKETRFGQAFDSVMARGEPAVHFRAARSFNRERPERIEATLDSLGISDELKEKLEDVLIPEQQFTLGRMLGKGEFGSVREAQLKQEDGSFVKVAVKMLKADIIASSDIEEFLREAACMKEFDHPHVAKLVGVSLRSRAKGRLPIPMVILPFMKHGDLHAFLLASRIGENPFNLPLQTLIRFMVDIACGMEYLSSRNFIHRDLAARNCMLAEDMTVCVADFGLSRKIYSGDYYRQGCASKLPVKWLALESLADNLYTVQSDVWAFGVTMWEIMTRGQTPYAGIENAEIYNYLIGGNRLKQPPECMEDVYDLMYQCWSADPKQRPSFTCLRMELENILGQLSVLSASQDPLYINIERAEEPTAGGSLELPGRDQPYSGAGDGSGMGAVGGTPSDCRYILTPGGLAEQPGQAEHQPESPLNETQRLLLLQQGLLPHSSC

Sequence of Melatonin receptor type 1A (Homo sapiens) (P48039 whole entry): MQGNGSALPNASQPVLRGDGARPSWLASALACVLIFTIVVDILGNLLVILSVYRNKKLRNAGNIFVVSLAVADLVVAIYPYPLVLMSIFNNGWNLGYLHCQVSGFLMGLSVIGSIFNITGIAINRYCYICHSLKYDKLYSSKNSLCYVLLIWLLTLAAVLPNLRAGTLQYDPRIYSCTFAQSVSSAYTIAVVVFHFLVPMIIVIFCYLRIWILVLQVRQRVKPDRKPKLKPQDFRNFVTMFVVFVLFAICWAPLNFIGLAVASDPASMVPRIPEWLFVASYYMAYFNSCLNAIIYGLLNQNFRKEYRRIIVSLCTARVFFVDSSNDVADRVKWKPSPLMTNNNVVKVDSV

Work on `CC(=O)c1cc(-c2ccccc2OCC2CC2)c2ncccn12` yielded a % of control [1] of 46%.
Work on `CC[C@@H]1[C@H](F)C(=O)N[C@@H]1COc1nccc2cc(C(N)=O)c(OC)cc12` [ZIMLOVISERTIB] yielded a % of inhibition [2] of 26.2%.
In the case of `C=CC(=O)Nc1cc(-n2c(=O)ccc3cnc4ccc(-c5ccc(NS(C)(=O)=O)cc5)cc4c32)ccc1C`, the % of control [3] is reported as 88%.
Compound `CNC(=O)Nc1ccc(-c2nc(N3CC4CCC(C3)O4)c3cnn(C4CCC5(CC4)OCCO5)c3n2)cc1` has a % of control [4] of 100%, a % of inhibition [5] of -8% and a % of control [6] of 100%.
